Values joined by “and” are separate entries in the source; they are usually repeats but may differ in a detail not shown here. Equal entries are not always repeated.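 Tested at 5 concentrations; 48 h exposure; 96-well plates; endpoints linearly interpolated, else capped at highest concentration. GI50 = concentration required for 50% inhibition of growth. TGI denotes the concentration required for complete inhibition of growth.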 Where a SMILES comes first, the peptide text is derived from it. [ ]: non-standard residue; d: D form. The star is where a group is joined. AllylGly = C=CC[CH](N)C(=O)O; Boc = CC(C)(C)OC(=O)*; OtBu = CC(C)(C)O*
What was measured:
Assay in all cases: DTP human tumour cell line panel, 48 h
[1] = tested on: HCC-2998 colon
[2] = tested on: SR leukemia
[3] = tested on: PC-3 prostate
[4] = tested on: K-562 leukemia
[5] = tested on: TK-10 renal
[6] = tested on: CAKI-1 renal
[7] = tested on: UACC-257 melanoma
[8] = tested on: HCT-15 colon
[9] = tested on: CCRF-CEM leukemia
[10] = tested on: HT29 colon
[11] = tested on: MALME-3M melanoma

SMILES	TGI [1] [µM]	TGI [2]	TGI [3] [µM]	TGI [4]	TGI [5]	TGI [6]	TGI [7]	TGI [8]	TGI [9]	TGI [10]	TGI [11]	GI50 [4]	GI50 [5]	GI50 [6]	GI50 [9]
Cc1ccc(S(=O)(=O)NN=C2CCCCCCCCCCC2)cc1	> 100	> 100 µM	> 100	> 100 µM	> 100 µM	> 100 µM	> 100 µM	> 100 µM	> 100 µM	> 100 µM	> 100 µM				
C=CCC(NC(=O)C(CC(=O)OC(C)(C)C)NC(=O)OC(C)(C)C)C(=O)OC (configuration not stated) (Boc-Asp(OtBu)-[AllylGly]-OMe; configuration not given here)	61.3	> 100 µM	> 100	> 100 µM	> 100 µM	> 100 µM	58.1 µM	> 100 µM	> 100 µM	> 100 µM	3.04 µM				
CC(OC(=O)NCn1cc(-c2ccccc2)nn1)c1ccccc1 (configuration not stated)	> 100	> 100 µM	5.23	75.5 µM	> 100 µM	> 100 µM	> 100 µM	> 100 µM	> 100 µM	> 100 µM	89.9 µM				
O=C1Nc2cccc(Cl)c2/C1=C\c1c(Cl)nc2sccn12	> 100	> 100 µM	> 100	> 100 µM	24.6 µM	> 100 µM	> 100 µM	> 100 µM	> 100 µM	> 100 µM	> 100 µM				
CC1(c2nc3cc(Cl)c(Cl)cc3[nH]2)CCC(CO)C(C)(C)O1 (configuration not stated)	> 100	> 100 µM	97.3	> 100 µM	> 100 µM	> 100 µM	> 100 µM	> 100 µM	> 100 µM	34.2 µM	84 µM				
CN1CN(c2ccccc2)C2(CCN(CCCSc3ccccc3NC(=O)/C=C/c3ccccc3)CC2)C1=O	20.6	12.3 µM	23.5	15.6 µM	34.4 µM	> 26.5 µM	3.34 µM	26.5 µM	> 100 µM	5.75 µM	4.77 µM				
COc1ccc(/C=C2\C[C@H]3[C@@H]4CCC5=C[C@@H](N6CCCC6)CC[C@]5(C)[C@H]4CC[C@]3(C)[C@H]2O)cc1	3.27	6.32 µM	8.17	11.8 µM	7.44 µM	14.6 µM	2.98 µM	5.77 µM		3.15 µM	5.87 µM				
CC1(C)N=C(C(N)=O)c2ncn(-c3ccccc3)c2N1	> 100	> 100 µM	> 100	> 100 µM	> 100 µM	> 100 µM	> 100 µM	> 100 µM	> 100 µM	> 100 µM	> 100 µM				
CN(NC(=O)CCCl)C1=NCCN1	> 100	> 100 µM	> 100	> 100 µM	> 100 µM		> 100 µM	> 100 µM	> 100 µM	> 100 µM	> 100 µM				
COc1cc(CCCOC(=O)/C=C/c2ccc(O)c(O)c2)cc(O)c1O	> 100	> 100 µM	> 100	> 100 µM	> 100 µM	> 100 µM	> 100 µM	> 100 µM	> 100 µM	98.7 µM	> 100 µM				
Cc1c(CCOC=O)c(=O)[nH]c2nncn12	> 100	> 100 µM	> 100	> 100 µM	> 100 µM		> 100 µM	> 100 µM	> 100 µM	> 100 µM	> 100 µM				
C[C@]12CC[C@@H]3c4cc(OCC(F)(F)F)c(O)cc4C(=O)C[C@H]3[C@@H]1CC[C@@H]2O	38.7	> 100 µM	> 67.7	> 100 µM	> 100 µM	> 100 µM	> 100 µM	> 100 µM	> 66.3 µM	38.4 µM	88.1 µM				
O=c1[nH]c(Nc2cccc(C(F)(F)F)c2)nc2nc[nH]c12	> 100	> 100 µM	> 100	> 100 µM	> 100 µM	> 100 µM	> 100 µM	> 100 µM	> 100 µM	> 100 µM	> 100 µM				
CCCCCNc1nonc1N	> 100	> 100 µM	> 100	> 100 µM	> 100 µM	> 100 µM	> 100 µM	> 100 µM	> 31.6 µM	> 100 µM	> 100 µM				
O=P(Oc1ccccc1)(Oc1ccccc1)Oc1c[nH]c2ccccc12	17.9	> 100 µM	8.26	36.5 µM	28.3 µM	23.4 µM	21.8 µM	28.8 µM	1.5 µM	22 µM	37.5 µM				
COc1ccc(-c2csc(=Nc3ccccc3)n2CC(O)c2ccc([N+](=O)[O-])cc2)cc1 (configuration not stated)	> 100	> 100 µM	> 100	> 100 µM	> 100 µM	> 100 µM	> 100 µM	> 100 µM	> 100 µM	> 100 µM	> 100 µM				
COc1ccc2nc3ccc(OC)cc3c(S(=O)(=O)Cc3ccc([N+](=O)[O-])cc3)c2c1	> 100	> 100 µM	> 100	> 100 µM	> 100 µM	> 100 µM	> 100 µM	> 100 µM	> 100 µM	> 100 µM	> 100 µM				
CCCc1cc(=O)oc2c3c(c4c(c12)OC(C)(C)C=C4)O[C@@H](C)[C@H](C)C3=O	34.5	41.6 µM	35.4	27.7 µM	44.3 µM	73.9 µM	37.3 µM	46.1 µM	48.3 µM	23.2 µM	35.6 µM				

SMILES	TGI [1] [µM]	TGI [2]	TGI [3] [µM]	TGI [4]	TGI [5]	TGI [6]	TGI [7]	TGI [8]	TGI [9]	TGI [10]	TGI [11]	GI50 [4]	GI50 [5]	GI50 [6]	GI50 [9]
CC(C)C1(C)N=C(C(F)(F)F)c2cc(C(=O)C(F)(F)F)c3ccccc3c2N1 (configuration not stated)	11.9	> 100 µM	6.75	> 100 µM	15.5 µM	9.74 µM	19.5 µM	14.1 µM	> 100 µM	13.5 µM	12.7 µM				
O=[N+]([O-])c1cccc2nc3ccccc3c(NCCc3cccc[n+]3[O-])c12	< 0.01	0.161 µM	1.51	> 100 µM	0.225 µM	0.901 µM	0.0647 µM	0.0639 µM		0.0628 µM	< 0.034 µM				
O=C1C(CN2CCCCC2)CCCC1CN1CCCCC1 (configuration not stated)	> 100	43.9 µM and 47.2 µM	29.8	15.8 µM and 25.5 µM	> 100 µM and 28.4 µM	26.2 µM and 11.9 µM	57.9 µM and 31.7 µM	28.2 µM and 42.8 µM	20.6 µM and > 22.6 µM	34.2 µM and 40.8 µM	11.4 µM and 14.8 µM	8.04 µM and 3.15 µM	> 100 µM and 12.4 µM	13 µM and 5.2 µM	4.86 µM and 2.41 µM
CCOC(=O)CCC(NC(=O)c1ccc(Oc2nc3ccc(C(F)(F)F)cc3nc2-c2ccccc2)cc1)C(=O)OCC (configuration not stated)	> 100	> 100 µM	> 100	> 100 µM	> 100 µM	26.9 µM	> 100 µM	> 100 µM	> 100 µM	> 75.2 µM	44.9 µM				
S=C(N/N=C(/c1ccccc1)c1ccccn1)Nc1ccccc1Cl	8.11	3.04 µM	13.3	> 5.82 µM	12.6 µM	11.5 µM	12.6 µM	7.36 µM	> 38.1 µM	13.4 µM	12.2 µM				
CC(C)(C)c1nc2c(o1)C(=O)c1ccccc1C2=O	7.39	45 µM	2.22	13.8 µM	11.7 µM	6.77 µM	1.43 µM	6.45 µM	> 29.5 µM	10.7 µM	1.48 µM				
CC(C)(C)N(Cc1ccc2c(c1)OCO2)C(=O)/C=C\S(=O)c1ccccc1 (configuration not stated)	13.8	> 27.7 µM	9.71	> 100 µM	17 µM	15.1 µM	12.5 µM	13.2 µM	> 100 µM	12.9 µM	13.9 µM				
CC(=O)C(=[N+]=[N-])C(=O)OC(C)(C)C#N	> 10	> 10 µM	> 10	> 10 µM	> 10 µM	> 10 µM	> 10 µM	> 10 µM	> 10 µM	> 10 µM	> 10 µM				
CC1CC[C@@]2(OC1)OC1C[C@H]3[C@@H]4C/C(=N\N(C)C)[C@@]5(O)CC(O)CC[C@]5(C)[C@H]4CC[C@]3(C)C1[C@@H]2C (some centres not stated)	> 100	54.6 µM	> 100	> 100 µM	> 100 µM		> 100 µM	> 100 µM	> 100 µM	49.2 µM	83.7 µM				
CN(C)CCNc1ccc2c(=O)n(CCN(C)C)c(=O)n3c4ccc([N+](=O)[O-])cc4c(=O)c1c23	2.27	0.581 µM	2.43	1.94 µM	7.1 µM	10.2 µM	4.42 µM	1.49 µM	0.381 µM	0.658 µM	1.37 µM				
Cc1ccc(-c2c(C#N)c(S)n(NS(=O)(=O)c3ccc(C)cc3)c(=O)c2C#N)cc1	46.9	> 100 µM	> 100	> 100 µM	50.5 µM	74.3 µM	> 100 µM	40.4 µM	> 100 µM		38.7 µM				
O=C1/C(=C\c2cccc(Oc3ccccc3)c2)S(=O)(=O)C(c2ccccc2)N1c1ccc(Cl)cc1 (configuration not stated)	> 100	40 µM	> 100	56.9 µM	> 100 µM	84.2 µM	94.3 µM	32.8 µM	79.1 µM	28.2 µM	33.6 µM				
COC(=O)C1(Cc2ccc3c(c2)CCC3)Cc2ccc3c(c2C1O)CCC3 (configuration not stated)	30.9	> 100 µM	32.3	> 100 µM	54.8 µM	29.4 µM	26.1 µM		> 100 µM	31.6 µM	27.3 µM				
CN(C)c1ccc(/C=C(\C#N)C(N)=C(C#N)C#N)cc1	> 100	> 100 µM	> 100	> 100 µM	> 100 µM	> 100 µM	> 100 µM	> 100 µM	> 100 µM	> 100 µM	> 100 µM				
C[C@H](Nc1c(O)c2c(c(O)c1Cl)C(=O)C=CC2=O)C(=O)Nc1ccc([N+](=O)[O-])cc1	8.05	> 10 µM	8.89	> 10 µM	3.39 µM	> 10 µM	3.41 µM	7.55 µM	> 10 µM	8.57 µM	2.41 µM				
CC(C)(C)c1ccc(-c2nc3ccc([N+](=O)[O-])cc3c(=O)o2)cc1	33	68.7 µM	72.5	71.3 µM	> 100 µM	> 100 µM	81.2 µM	73.4 µM	58.2 µM	69.4 µM	75 µM				
N#Cc1c(-c2ccc([N+](=O)[O-])cc2)cc(-c2ccc(Nc3ccnc4cc(C(F)(F)F)ccc34)cc2)nc1N	> 55.4	> 20 µM	56.9	19.1 µM	> 69.8 µM	41.3 µM	> 85.2 µM	23.6 µM	> 29.7 µM	34.2 µM	> 62.8 µM				
CC1(C)C(=O)C(C)(C)C12SSC1(S2)C(C)(C)C(=O)C1(C)C	> 100	> 100 µM	> 100	> 100 µM	> 100 µM	> 100 µM	> 100 µM	> 100 µM		> 100 µM	> 100 µM				
